Key:
Assay in all cases: KINOMEscan competition binding
Conditions in all cases: compound 10.0 µM
CDK2 (human) = CDK2 (human) (UniProt P24941)
EPHB6 (human) = EPHB6 (human) (UniProt O15197)
PIP5K1C (human) = PIP5K1C (human) (UniProt O60331)
TNK2 (human) = TNK2 (human) (UniProt Q07912)
MAP3K6 (human) = MAP3K6 (human) (UniProt O95382)
MAP3K15 (human) = MAP3K15 (human) (UniProt Q6ZN16)
SRMS (human) = SRMS (human) (UniProt Q9H3Y6)
CAMK2D (human) = CAMK2D (human) (UniProt Q13557)
[1] = biological target: JAK3 JH1 catalytic (human) (UniProt P52333)
CSNK1A1L (human) = CSNK1A1L (human) (UniProt Q8N752)
TNNI3K (human) = TNNI3K (human) (UniProt Q59H18)
MAPK8 (human) = MAPK8 (human) (UniProt P45983)
MATK (human) = MATK (human) (UniProt P42679)
[2] = system: RET (human), P07949 [M918T]
PRKCQ (human) = PRKCQ (human) (UniProt Q04759)
MAPK6 (human) = MAPK6 (human) (UniProt Q16659)
FGFR1 (human) = FGFR1 (human) (UniProt P11362)
NEK7 (human) = NEK7 (human) (UniProt Q8TDX7)
IGF1R (human) = IGF1R (human) (UniProt P08069)
LIMK1 (human) = LIMK1 (human) (UniProt P53667)
CAMKK1 (human) = CAMKK1 (human) (UniProt Q8N5S9)
CAMK2G (human) = CAMK2G (human) (UniProt Q13555)
MTOR (human) = MTOR (human) (UniProt P42345)
DYRK2 (human) = DYRK2 (human) (UniProt Q92630)
RPS6KA5 KD2 (human) = RPS6KA5 KD2 (human) (UniProt O75582)
PAK4 (human) = PAK4 (human) (UniProt O96013)
STK16 (human) = STK16 (human) (UniProt O75716)
IRAK3 (human) = IRAK3 (human) (UniProt Q9Y616)
MYLK4 (human) = MYLK4 (human) (UniProt Q86YV6)
MAP3K9 (human) = MAP3K9 (human) (UniProt P80192)
CAMK2B (human) = CAMK2B (human) (UniProt Q13554)
CDK19 (human) = CDK19 (human) (UniProt Q9BWU1)
CDK9 (human) = CDK9 (human) (UniProt P50750)
BLK (human) = BLK (human) (UniProt P51451)
DCLK2 (human) = DCLK2 (human) (UniProt Q8N568)
FER (human) = FER (human) (UniProt P16591)
SRPK1 (human) = SRPK1 (human) (UniProt Q96SB4)
MAST1 (human) = MAST1 (human) (UniProt Q9Y2H9)
DDR2 (human) = DDR2 (human) (UniProt Q16832)
CDKL3 (human) = CDKL3 (human) (UniProt Q8IVW4)

EPHB6 (human), sequence (O15197 whole entry, looked up): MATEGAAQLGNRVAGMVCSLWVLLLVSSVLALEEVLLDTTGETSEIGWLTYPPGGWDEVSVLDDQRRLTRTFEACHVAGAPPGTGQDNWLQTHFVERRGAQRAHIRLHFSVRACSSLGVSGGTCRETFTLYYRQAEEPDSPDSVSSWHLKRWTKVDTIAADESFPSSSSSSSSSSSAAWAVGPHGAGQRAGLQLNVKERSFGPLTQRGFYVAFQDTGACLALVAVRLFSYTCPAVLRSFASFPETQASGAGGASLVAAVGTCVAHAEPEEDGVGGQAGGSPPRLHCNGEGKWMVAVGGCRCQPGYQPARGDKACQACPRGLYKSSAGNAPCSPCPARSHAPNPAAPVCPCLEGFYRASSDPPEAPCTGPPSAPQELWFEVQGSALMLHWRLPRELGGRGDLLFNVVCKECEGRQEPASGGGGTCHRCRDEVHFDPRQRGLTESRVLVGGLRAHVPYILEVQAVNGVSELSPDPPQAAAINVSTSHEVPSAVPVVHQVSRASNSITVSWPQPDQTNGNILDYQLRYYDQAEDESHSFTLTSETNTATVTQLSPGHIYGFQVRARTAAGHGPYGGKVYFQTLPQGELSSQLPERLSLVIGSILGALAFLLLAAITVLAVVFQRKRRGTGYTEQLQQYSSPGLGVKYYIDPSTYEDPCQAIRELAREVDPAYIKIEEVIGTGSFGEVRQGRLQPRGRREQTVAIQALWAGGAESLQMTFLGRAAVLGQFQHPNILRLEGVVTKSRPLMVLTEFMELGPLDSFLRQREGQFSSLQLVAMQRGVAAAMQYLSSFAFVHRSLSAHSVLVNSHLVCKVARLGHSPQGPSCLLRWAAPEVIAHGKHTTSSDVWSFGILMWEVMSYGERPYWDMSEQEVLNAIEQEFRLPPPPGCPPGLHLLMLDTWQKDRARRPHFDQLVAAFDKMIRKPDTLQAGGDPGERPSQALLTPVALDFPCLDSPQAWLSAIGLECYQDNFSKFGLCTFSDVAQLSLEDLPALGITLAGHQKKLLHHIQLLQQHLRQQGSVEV
CAMKK1 (human), sequence (Q8N5S9 whole entry, looked up): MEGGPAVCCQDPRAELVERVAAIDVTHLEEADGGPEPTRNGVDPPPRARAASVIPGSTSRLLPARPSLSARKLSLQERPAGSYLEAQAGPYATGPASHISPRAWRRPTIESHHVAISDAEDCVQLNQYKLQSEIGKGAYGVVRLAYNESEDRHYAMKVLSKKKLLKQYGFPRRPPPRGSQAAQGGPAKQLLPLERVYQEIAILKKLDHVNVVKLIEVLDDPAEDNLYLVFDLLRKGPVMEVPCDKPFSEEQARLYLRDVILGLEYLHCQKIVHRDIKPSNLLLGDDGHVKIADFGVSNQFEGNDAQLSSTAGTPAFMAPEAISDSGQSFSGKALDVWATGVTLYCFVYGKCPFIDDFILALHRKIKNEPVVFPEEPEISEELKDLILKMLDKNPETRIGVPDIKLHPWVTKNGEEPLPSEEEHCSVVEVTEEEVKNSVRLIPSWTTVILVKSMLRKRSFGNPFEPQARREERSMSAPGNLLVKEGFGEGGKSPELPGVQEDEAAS
DCLK2 (human), sequence (Q8N568 whole entry, looked up): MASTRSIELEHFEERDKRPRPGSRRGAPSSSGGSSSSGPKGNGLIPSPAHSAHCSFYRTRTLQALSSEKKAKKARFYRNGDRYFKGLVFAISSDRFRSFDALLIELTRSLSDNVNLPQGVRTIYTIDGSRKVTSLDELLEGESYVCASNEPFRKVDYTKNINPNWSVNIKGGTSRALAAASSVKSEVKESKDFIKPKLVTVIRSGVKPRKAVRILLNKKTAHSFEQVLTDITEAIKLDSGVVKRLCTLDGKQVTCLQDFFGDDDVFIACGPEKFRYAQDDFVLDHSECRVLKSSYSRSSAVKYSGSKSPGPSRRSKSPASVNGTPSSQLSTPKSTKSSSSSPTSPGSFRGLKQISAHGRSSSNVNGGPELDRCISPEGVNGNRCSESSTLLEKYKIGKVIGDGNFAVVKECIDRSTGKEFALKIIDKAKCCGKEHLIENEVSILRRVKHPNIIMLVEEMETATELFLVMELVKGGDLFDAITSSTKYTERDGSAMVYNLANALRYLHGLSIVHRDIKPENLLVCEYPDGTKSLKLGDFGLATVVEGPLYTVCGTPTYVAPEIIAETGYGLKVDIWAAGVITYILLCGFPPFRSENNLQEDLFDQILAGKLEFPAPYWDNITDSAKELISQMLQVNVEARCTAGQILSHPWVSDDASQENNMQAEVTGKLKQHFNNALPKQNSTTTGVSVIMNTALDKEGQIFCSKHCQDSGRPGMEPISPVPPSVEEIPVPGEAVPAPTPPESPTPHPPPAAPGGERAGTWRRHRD
MAPK8 (human), sequence (P45983 whole entry, looked up): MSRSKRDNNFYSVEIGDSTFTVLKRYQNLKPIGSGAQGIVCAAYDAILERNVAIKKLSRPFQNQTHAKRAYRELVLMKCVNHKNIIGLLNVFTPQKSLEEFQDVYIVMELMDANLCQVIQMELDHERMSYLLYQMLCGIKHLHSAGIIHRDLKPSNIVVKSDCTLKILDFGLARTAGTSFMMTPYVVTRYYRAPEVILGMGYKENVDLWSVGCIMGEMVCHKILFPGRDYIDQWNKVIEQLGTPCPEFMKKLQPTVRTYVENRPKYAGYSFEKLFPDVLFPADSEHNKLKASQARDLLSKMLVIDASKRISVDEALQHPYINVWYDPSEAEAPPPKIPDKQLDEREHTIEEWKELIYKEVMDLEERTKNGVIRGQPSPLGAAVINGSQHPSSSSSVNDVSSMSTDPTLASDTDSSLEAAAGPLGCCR
RPS6KA5 KD2 (human), sequence (O75582 whole entry, looked up): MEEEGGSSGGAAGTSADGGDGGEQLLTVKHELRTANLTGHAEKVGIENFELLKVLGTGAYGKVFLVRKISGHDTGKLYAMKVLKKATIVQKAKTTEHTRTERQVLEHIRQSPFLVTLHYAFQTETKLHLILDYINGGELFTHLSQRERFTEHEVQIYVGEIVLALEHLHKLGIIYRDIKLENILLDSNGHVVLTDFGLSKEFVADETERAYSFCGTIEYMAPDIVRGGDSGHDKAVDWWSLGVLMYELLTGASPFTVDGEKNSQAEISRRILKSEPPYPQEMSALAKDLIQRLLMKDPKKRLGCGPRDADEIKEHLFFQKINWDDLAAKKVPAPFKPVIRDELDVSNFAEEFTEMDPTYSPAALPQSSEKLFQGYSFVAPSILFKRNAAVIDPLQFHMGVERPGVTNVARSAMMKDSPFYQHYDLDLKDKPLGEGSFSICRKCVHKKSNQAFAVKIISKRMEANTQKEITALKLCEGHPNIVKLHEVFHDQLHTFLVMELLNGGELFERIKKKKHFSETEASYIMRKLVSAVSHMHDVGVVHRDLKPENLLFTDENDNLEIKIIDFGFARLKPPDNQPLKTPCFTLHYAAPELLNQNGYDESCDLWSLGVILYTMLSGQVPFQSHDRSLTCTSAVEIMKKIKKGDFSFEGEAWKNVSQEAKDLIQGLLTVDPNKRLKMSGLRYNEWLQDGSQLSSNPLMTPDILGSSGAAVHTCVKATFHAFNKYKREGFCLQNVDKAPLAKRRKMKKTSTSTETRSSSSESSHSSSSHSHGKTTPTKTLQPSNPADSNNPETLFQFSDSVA
MYLK4 (human), sequence (Q86YV6 whole entry, looked up): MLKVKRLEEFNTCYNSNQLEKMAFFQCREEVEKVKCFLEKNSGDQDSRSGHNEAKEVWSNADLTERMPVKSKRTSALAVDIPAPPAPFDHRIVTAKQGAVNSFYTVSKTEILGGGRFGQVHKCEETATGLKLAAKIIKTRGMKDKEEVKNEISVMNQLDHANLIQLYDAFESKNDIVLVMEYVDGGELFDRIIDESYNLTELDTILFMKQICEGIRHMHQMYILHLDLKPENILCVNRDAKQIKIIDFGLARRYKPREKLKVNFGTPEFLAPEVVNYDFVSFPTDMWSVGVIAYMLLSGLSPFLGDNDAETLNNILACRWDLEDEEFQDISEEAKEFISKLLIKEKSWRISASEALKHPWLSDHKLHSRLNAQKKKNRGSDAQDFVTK
CDK9 (human), sequence (P50750 whole entry, looked up): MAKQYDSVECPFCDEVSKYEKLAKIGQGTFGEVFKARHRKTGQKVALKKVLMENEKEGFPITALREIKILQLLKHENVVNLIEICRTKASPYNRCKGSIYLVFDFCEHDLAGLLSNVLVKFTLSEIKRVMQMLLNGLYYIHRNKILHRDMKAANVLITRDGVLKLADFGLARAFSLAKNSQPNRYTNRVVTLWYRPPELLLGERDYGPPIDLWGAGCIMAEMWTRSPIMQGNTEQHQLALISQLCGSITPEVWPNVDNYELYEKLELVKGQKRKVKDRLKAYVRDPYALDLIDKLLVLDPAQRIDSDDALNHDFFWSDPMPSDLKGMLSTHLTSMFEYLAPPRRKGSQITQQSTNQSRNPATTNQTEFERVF
LIMK1 (human), sequence (P53667 whole entry, looked up): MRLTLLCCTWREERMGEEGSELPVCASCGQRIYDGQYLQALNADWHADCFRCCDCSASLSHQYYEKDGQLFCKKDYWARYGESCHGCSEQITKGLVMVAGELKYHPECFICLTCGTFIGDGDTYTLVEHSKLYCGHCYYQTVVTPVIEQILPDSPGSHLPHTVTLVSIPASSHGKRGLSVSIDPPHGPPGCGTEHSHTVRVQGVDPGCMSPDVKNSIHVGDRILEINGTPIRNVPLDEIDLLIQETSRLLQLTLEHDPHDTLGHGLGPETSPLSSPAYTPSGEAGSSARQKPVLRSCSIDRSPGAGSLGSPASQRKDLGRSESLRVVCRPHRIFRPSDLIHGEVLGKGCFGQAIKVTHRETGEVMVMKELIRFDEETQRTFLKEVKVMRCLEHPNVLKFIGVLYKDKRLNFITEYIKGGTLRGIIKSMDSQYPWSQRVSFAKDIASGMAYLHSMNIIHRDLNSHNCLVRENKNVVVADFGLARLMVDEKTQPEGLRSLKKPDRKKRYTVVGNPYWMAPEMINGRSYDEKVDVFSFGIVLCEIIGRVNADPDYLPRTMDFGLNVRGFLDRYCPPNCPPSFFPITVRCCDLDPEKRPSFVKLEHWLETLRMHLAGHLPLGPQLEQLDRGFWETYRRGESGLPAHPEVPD

O=C(Nc1cccc(Nc2ncc(Br)c(NCCc3cnc[nH]3)n2)c1)N1CCCC1
kinase still bound, per cent of control (CDK2 (human)): 43%
kinase still bound, per cent of control (EPHB6 (human)): 0.2%
kinase still bound, per cent of control (PIP5K1C (human)): 22%
kinase still bound, per cent of control (TNK2 (human)): 18%
kinase still bound, per cent of control (MAP3K6 (human)): 49%
kinase still bound, per cent of control (MAP3K15 (human)): 50%
kinase still bound, per cent of control (SRMS (human)): 37%
kinase still bound, per cent of control (CAMK2D (human)): 46%
kinase still bound, per cent of control [1]: 0%
kinase still bound, per cent of control (CSNK1A1L (human)): 32%
kinase still bound, per cent of control (TNNI3K (human)): 28%
kinase still bound, per cent of control (MAPK8 (human)): 0.2%
kinase still bound, per cent of control (MATK (human)): 40%
kinase still bound, per cent of control [2]: 0.05%
kinase still bound, per cent of control (PRKCQ (human)): 3.6%
kinase still bound, per cent of control (MAPK6 (human)): 5%
kinase still bound, per cent of control (FGFR1 (human)): 0.25%
kinase still bound, per cent of control (NEK7 (human)): 0.5%
kinase still bound, per cent of control (IGF1R (human)): 17%
kinase still bound, per cent of control (LIMK1 (human)): 38%
kinase still bound, per cent of control (CAMKK1 (human)): 8.8%
kinase still bound, per cent of control (CAMK2G (human)): 52%
kinase still bound, per cent of control (MTOR (human)): 87%
kinase still bound, per cent of control (DYRK2 (human)): 3.4%
kinase still bound, per cent of control (RPS6KA5 KD2 (human)): 31%
kinase still bound, per cent of control (PAK4 (human)): 4%
kinase still bound, per cent of control (STK16 (human)): 0.55%
kinase still bound, per cent of control (IRAK3 (human)): 0.7%
kinase still bound, per cent of control (MYLK4 (human)): 6.8%
kinase still bound, per cent of control (MAP3K9 (human)): 0.45%
kinase still bound, per cent of control (CAMK2B (human)): 35%
kinase still bound, per cent of control (CDK19 (human)): 100%
kinase still bound, per cent of control (CDK9 (human)): 66%
kinase still bound, per cent of control (BLK (human)): 0.6%
kinase still bound, per cent of control (DCLK2 (human)): 70%
kinase still bound, per cent of control (FER (human)): 47%
kinase still bound, per cent of control (SRPK1 (human)): 4.2%
kinase still bound, per cent of control (MAST1 (human)): 58%
kinase still bound, per cent of control (DDR2 (human)): 65%
kinase still bound, per cent of control (CDKL3 (human)): 75%
